Values quoted from earlier work as cited in patent EP0076676B1, “Process for using endorphins as antitumour agents” (TNI PHARMACEUTICALS, INC., priority 1981, dated 1986).

System: phenylalanyl-t RNA synthetase
Settings: observed by Laidow et al, J.B.C. 255 (1980)

beta-endorphin
inhibition of phenylalanyl-t RNA synthetase: inhibit
